Source: a melting point compilation (Tetko et al.; mined from patent text by program, amines drawn as free bases though some values may be those of a salt)

Row | melting point | SMILES
1 | 84 to 85 °C | COC(=O)c1c2c(c3c(C)c(OC)c(OC)c(OC)c3c1-c1ccc(OC)c(OC)c1)OCOC2=O
2 | 183 to 185 °C | O=c1oc(-c2cccc(-c3ccccc3)c2)cc(O)c1Sc1ccc2ccccc2c1
3 | 95.5 to 96.5 °C | ClC(=NNc1ccccc1)c1c(Cl)cccc1Cl
4 | 141 to 142 °C | CC(C)=Cn1ncc(OCc2ccc(I)nc2)c(Cl)c1=O
5 | 162 to 163 °C | O=C1NC(=S)SC1=Cc1ccc(COc2ccccc2CCc2ccccc2)cc1
6 | 99 to 100 °C | CCOC(=O)c1ccc(Sc2cc3c(cc2C(C)C)C(C)(C)CCC3(C)C)cc1
7 | 80 to 125 °C | CC(=O)NC1CCC(=O)N2CCCC(C(=O)NC(CC(=O)OC(C)(C)C)C(=O)COC(=O)c3c(Cl)cccc3Cl)N2C1=O (centres undefined)
8 | 152 °C | CCOC(=O)C1=C(C)NC(C)=C(C(=O)OC(C)C)C1c1ccccc1C#N (centres undefined)
9 | 194 to 196 °C | CCCC(=O)ONC(=N)c1ccc(NC(=O)CCCC(=O)Nc2ccc(C(=N)NOC(=O)CCC)cc2)cc1
10 | 227 to 228 °C | CCOC(=O)N(CCNc1ccc2ncc(-c3ccc(C(N)=O)cc3)n2n1)c1ccccc1
11 | 116 to 117 °C | COC(=O)c1cc2c(nc1C)C(COC(=O)Oc1ccc([N+](=O)[O-])cc1)CCCC2 (centres undefined)
12 | 128 °C | COC(=O)c1ccc(C=O)c2ncccc12
13 | 209 to 211 °C | C#CCOc1cc(-n2nc3ccc(Cl)cn3c2=O)c(F)cc1C#N
14 | 204 to 206 °C | CCCCCc1csc(-c2ccc3c(c2)C=C(C(=O)Nc2ccc(CN(C)C4CCOCC4)cc2)CCS3(=O)=O)c1
15 | 159 to 162 °C | COc1ccc(Sc2[nH]cc(C(=O)O)c2Sc2ccc(OC)cc2)cc1
16 | 117 to 118 °C | COc1ccc(CN(CC(=O)OC(C)(C)C)S(=O)(=O)c2ccc3c(Cl)cnc(Cl)c3c2)cc1
17 | 177 to 179 °C | O=c1[nH]sc2c1CCC2
18 | 142 to 144 °C | CC(CNc1ccc(C(=O)O)cc1)Oc1cccc2ccccc12 (centres undefined)
19 | 88 to 90 °C | Cc1cc(C)cc(OCC(O)CCN2CCN(c3ccccc3)CC2)c1 (centres undefined)
20 | 232 to 233 °C | CN1C(=N)N(C)C(=Cc2c[nH]c3ccccc23)C1=O
21 | 188 to 190 °C | O=[N+]([O-])c1ccc2c(c1)C=C(N1CCN(Cc3ccc4c(c3)OCO4)CC1)c1ccccc1S2
22 | 128 to 133 °C | CCCCN(CCCC)c1nc(Nc2cccc3c2C(=O)c2ccccc2C3=O)nc(N(CCCC)CCCC)n1
23 | 141 to 143 °C | Nc1ccc(Cl)cc1C(O)(C#CC1CC1)C(F)(F)F (centres undefined)
24 | 72 °C | CCN(CC)C(=O)Oc1cc(-c2cccs2)nc2ccccc12
25 | 99 °C | C=C(C)C(=O)OCCOc1ccc(-c2cc(OC(=O)C(=C)C)cc(-c3ccc(OCCOC(=O)C(=C)C)cc3)c2)cc1
26 | 209 °C | Cc1cc(C)nc(C(N)=NO)n1
27 | 99 to 101 °C | Oc1ccc2c(c1O)OCC(c1cccc(Cl)c1)C2 (centres undefined)

Row | melting point | SMILES
28 | 73 to 74 °C | CCOC(=O)[C@H]1C2C1[C@](N[C@H](C)c1ccccc1)(C(=O)OCC)C[C@@H]2O (some centres undefined)
29 | 230 °C | Cc1ccc(-c2nc(N)ncc2-c2ccc(=O)n(C)n2)cc1
30 | 133 to 140 °C | N#Cc1c(N2CCN(C(=O)C3CCCS3)CC2)c2ccccc2n(Cc2ccc(F)cc2)c1=O (centres undefined)
31 | 142 to 143 °C | COc1cc(C(C)=O)ccc1OCCCN1CCC(C(O)(c2ccc(F)cc2)c2ccc(F)cc2)CC1
32 | 58 to 60 °C | COc1ccc2sc(=Nc3ccccc3)sc2c1
33 | 335 to 340 °C | O=C(O)c1c[nH]c2oc3ccccc3c(=O)c2c1=O
34 | 224 °C | CS(=O)(=O)Oc1cnc2ccccc2c1O
35 | 265 to 266 °C | Cc1nc2c(O)c(CC[C@@H](O)c3ccccc3)c(C(=O)N3CCC3)cc2n1C
36 | 214 to 216 °C | NS(=O)(=O)c1ccc(NC(=O)CCl)cc1Cl
37 | 107 to 108 °C | C[C@@H]1CCN(C(=O)C(C)(C)C)[C@@H](C(=O)NOCc2ccccc2)C1
38 | 89 °C | Nc1cnccc1N1CCc2ccccc21
39 | 118 to 120 °C | O=[N+]([O-])c1cnc2ccc(Cl)cc2c1Cl
40 | 178 to 180 °C | CCC(CC)Nc1cc(C(=O)O)ccc1N1CCCC1=O
41 | 101 to 102 °C | O=C(/C=C/[C@@H]1[C@H]2CC(=O)O[C@H]2C[C@H]1OC(=O)c1ccccc1)COc1cccc(Cl)c1
42 | 194 to 197 °C | COc1ccc2c(c1)c(=O)c(CO)cn2C
43 | 167 to 169 °C | CCOC(=O)c1nc(Nc2ccccc2)sc1-c1ccncc1
44 | 203 to 204 °C | Cc1cc(=O)c(C(=O)Nc2nnc(C)s2)c(C)o1
45 | 154 °C | CCC1=NNC(C)=C(C(=O)OCc2ccccc2)C1c1cccc([N+](=O)[O-])c1 (centres undefined)
46 | 190 to 192 °C | O=S(=O)(CC(F)(F)F)c1nc2cc(Cl)c(Cl)cc2[nH]1
47 | 66 to 68 °C | CC(C)OC(=O)c1cc(-n2c(=O)c(F)c(C(F)(F)F)n(C)c2=O)c(F)cc1Cl
48 | 157 °C | COc1ccc(N2CCN(c3ncc(N)cn3)CC2)cc1
49 | 96 to 98 °C | Cc1ccc(Cl)cc1N1CCCN(CC(C)C)C1=S
50 | 230 to 233 °C | COc1ccc(-c2nc(NC(=O)c3ccccc3)sc2-c2ccnc(NC(=O)c3ccccc3)c2)cc1
51 | 176 to 178 °C | Cc1cc(CC(=O)O)n(C)c1C(=O)c1ccc(F)cc1
52 | 153 to 155 °C | Cc1nc(N2CCOCC2)c2c(n1)N(CC(O)CO)C(=O)CO2 (centres undefined)
53 | > 300 °C | CC(=O)c1ccc2oc3nc(N)c(C(=O)O)cc3c(=O)c2c1
54 | 210 to 212 °C | N#Cc1cnc2ccc(N)cc2c1Nc1ccc(F)c(Br)c1

Further lines, the compound ahead of its results:

Row | SMILES | melting point
55 | COc1cc(Nc2c(C#N)cnc3cc(OCCCN4CCC(N5CCCCC5)CC4)c(OC)cc23)c(Cl)cc1Cl | 130 to 132 °C
56 | Cn1cc(S(=O)(=O)Cl)c(=O)c2cc(F)c(Cl)cc21 | > 300 °C
57 | O=C1c2ccccc2S(=O)(=O)N1CCCCOc1ccc(OCc2ccccc2)cc1 | 82 to 84 °C
58 | N#Cc1ccc2cc3c4c(cccc4c2c1)C(=O)OC3=O | > 320 °C
59 | Nc1ncc2cc(-c3c(Cl)cccc3Cl)c(=O)n(CCCc3ccccc3)c2n1 | 161 to 163 °C
60 | Cc1cc(C)c2c(c1O)C(N1CCCC1)C1CCCCC21 (centres undefined) | 96 to 97 °C
61 | Cc1ccc(NC(=O)N[C@@H]2N=C(c3ccccc3)c3ccccc3N(C)C2=O)cc1 | 233 to 235 °C
62 | N#Cc1ccc(C(=C2C3CC4CC(C3)CC2C4)c2nc[nH]n2)cc1 | 105 °C
63 | NC(Cc1coc2c(Cl)cccc12)=NO | 142 to 145 °C
64 | CCN(CC)CCOc1ccc(Nc2ncc3c(n2)N(Cc2ccccc2)C(=O)N(c2c(Cl)cccc2Cl)C3)cc1 | 106 °C
65 | Cc1cc(-n2ccc(OCc3ccc(F)cc3)cc2=O)sc1C(=O)NCc1ccccc1 | 195 to 197 °C
66 | COc1ccccc1-c1noc2ccc([N+](=O)[O-])cc12 | 170 to 171 °C
67 | COc1ccccc1-c1cc(F)cc2c1O[C@@H](CN)CC2 | 100 °C
68 | COC(=O)CC(Nc1ccccc1OC)c1ccc2ccccc2n1 (centres undefined) | 119 to 121 °C
69 | CCCCn1c(=O)n(C)c(=O)c2[nH]ncc21 | 160 to 162 °C
70 | Cc1cc(CCC(=O)c2ccc(-c3ccc(C(F)(F)F)cc3)s2)ccc1OC(C)(C)C(=O)O | 130 to 131 °C
71 | CCC(COCc1cc(OC)c(O)c(OC)c1)(c1cccs1)N(C)C (centres undefined) | 126 to 127 °C
72 | O=C1Nc2ncccc2N2CCNCC12 (centres undefined) | 315 to 319 °C
73 | CC(C)CCOc1cc(C(=O)O)cc([N+](=O)[O-])c1 | 142 °C
74 | CS(=O)c1ccc(-c2nc(-c3ccc(F)cc3)c(-c3ccncc3)[nH]2)cc1 (centres undefined) | 250 to 252 °C
75 | C=CCC1(C(=O)NCC)c2ccccc2Oc2ccccc21 | 111 to 112 °C
76 | CNC(=O)C1=CC(C)(C)Oc2ccc([N+](=O)[O-])cc21 | 166 to 168 °C
77 | CCC[C@H]1CC[C@H](c2ncc(C(=O)O)cn2)CC1 | 184 to 186 °C

Row | SMILES | melting point
78 | CCNCC1CCN(c2cc3c(cc2F)c(=O)c(C(=O)O)cn3CC)C1 (centres undefined) | 248 to 252 °C
79 | N#CCCn1cccc1-c1ccc2cnc(Nc3ccc(N4CCOCC4)cc3)nn12 | 85 to 89 °C
80 | COC(=O)C1=C(C)NC(C)=C(C(=O)OCCCCCCCCCCO)[C@H]1c1cccc2nonc12 | 120 °C
81 | CCCCCCN1C(=O)C(=O)c2cc(SCCCc3ccc(C(=O)O)cc3)ccc21 | 150 to 152 °C
82 | Cc1c(Cl)nc2nc(SCc3ccccc3)nn2c1Cl | 121 to 123 °C
83 | O=C(Nc1ccncn1)c1ccccc1SSc1ccccc1C(=O)Nc1ccncn1 | 234 to 235 °C
84 | Cc1ccc(S(=O)(=O)N(Cc2ccc(C#N)cc2F)C2CCC2)cc1 | 146 to 147 °C
85 | O=C(Nc1ccc(-n2nc(C(F)(F)F)cc2C(F)(F)F)cc1)c1ccc(Br)cc1 | 205 to 207 °C
86 | NC(=O)CC1CN=C(c2cc3cccc(NS(=O)(=O)c4cccs4)c3[nH]2)S1 (centres undefined) | 130 to 131 °C
87 | O=C1O[C@@H](Cn2ccnn2)CN1c1ccc(-c2ccc(CN3CCOCC3)nc2)c(F)c1 | 175 °C
88 | O=C(O)COc1ccc2c(-c3ccco3)noc2c1Cl | 230 to 233 °C
89 | O=C(/C=C/C=C(c1cccc(F)c1)c1cccc(F)c1)Oc1ccc([N+](=O)[O-])cc1 | 130 °C
90 | O=S1(=O)N=C(c2cccc(Cl)c2)c2ccccc21 | 149 to 150 °C
91 | CCCCCCCCc1cc2c(s1)NC(=O)CN=C2c1ccccc1OC | 128 to 130 °C
92 | CC(C)CCNCCCN1C(=O)C2(COc3cc4c(cc32)CCO4)c2ccccc21 (centres undefined) | 98 to 101 °C
93 | CC(=O)Nc1[nH]c(-c2ccc(O)cc2)nc1C | 277 to 279 °C
94 | CC(=O)NC[C@H]1CN(c2ccc(-c3ncns3)c(F)c2)C(=O)O1 | 199 to 200 °C
95 | CC(=O)NCCCc1ccc(CN2CCN(c3ccccc3)CC2)cc1 | 117 to 118 °C
96 | Cc1c2c(c(C)c3c1NC(C)(C)C3)OC(C)(CN1CCC(N(C)c3nc4ccccc4s3)CC1)C2 (centres undefined) | 147 to 150 °C
97 | C=CCn1c(N)cc(=O)n1-c1ccccc1 | 184 to 185 °C
98 | CCCCOc1ccc(-n2cc(C(=O)O)cn2)cc1C#N | 200 to 202 °C
99 | N=C(Nc1cccc(NC(=O)/C=C/c2ccccc2C(F)(F)F)c1)c1ccccc1 | 82 to 84 °C
